Measured values as given in US20230404893A1, “Oral Care Compositions Comprising Ascorbic Acid Derivatives” (Colgate-Palmolive Company, priority 2020, published 2023).

Experiments:
[1] = Standard brushing study, Toothpaste F samples (starting L 57.3-66.3, twelve teeth per cell); parameters: species or system bovine; settings: ΔW data of Table 14, Toothpaste F
Procedure: Bovine enamel teeth mounted individually in resin blocks are purchased and brushed with an abrasive paste until initial “L” values were 56-68. Trays are prepared for the brushing machine and each tray consists of six teeth mounted using 3D printed trays. Baseline optical measurements of the bovine teeth are taken using a spectrophotometer and the trays are loaded onto the brushing machine.
Toothbrushes are placed on the brushing machine by removing the head of a manual toothbrush from its handle. Slurry composed of 1:1 ratio by weight of test toothpaste to artificial saliva is prepared and added to each tray. The teeth are brushed for two minutes with 250 grams of pressure at 120 strokes per minute. After brushing is stopped, the slurry is removed and residual toothpaste is rinsed away with deionized water. The brushing treatment is repeated a total of 14 times and measurements are taken every 2 cycles. The teeth are then gently blotted with a paper towel to remove excess liquid and measurements are taken with the spectrophotometer. […] The “L”, “a”, and “b” values are determined and are used to calculate the change in whiteness “ΔW” for each tooth after the treatment. […]

[2] = Color of toothpaste samples measured with a spectrophotometer (L*, a*, b*); assay type: physicochemical; settings: basic toothpaste formulas with sodium ascorbyl phosphate, with/without sodium stearate
Procedure: To overcome this color issue, surfactants are added to the basic toothpaste formulas in combination with sodium ascorbyl phosphate. Table 15 describes one basic toothpaste formula, to which sodium ascorbyl phosphate and surfactants are added. Three surfactants, sodium stearate, sodium cocoyl glutamate and sodium lauryl isoethionate, are screened, alone and in different combinations with/without sodium ascorbyl phosphate.
Samples of basic toothpaste G with different amounts and combinations of surfactants with/without sodium ascorbyl phosphate are prepared and evaluated for color, as shown in Table 16. A high “b*” value indicates a more yellow color while a lower value indicates a more blue color. A high “L*” value indicates a whiter sample compared to a low “L*” value which indicates a darker sample. As can be observed in Table 16 samples without sodium stearate that incorporate sodium ascorbyl phosphate tends to increase the “b*” value, indicating a more yellow color. Samples that incorporate sodium stearate with sodium ascorbyl phosphate tend to have a relative reduction in “b*” value, indicating less yellow color.

O=C1O[C@H]([C@@H](O)CO)C([O-])=C1OP(=O)([O-])[O-].[Na+].[Na+].[Na+] [sodium ascorbyl phosphate]
whitening efficacy (in words) [1]: significant effect on whitening efficacy
color of the toothpaste (in words) [2]: observable yellow color
